Reference: patent US11535679B2, “Bispecific antibody against CD3 and CD20 in combination therapy for treating follicular lymphoma” (GENMAB A/S, priority 2020, dated 2022)

How the values were obtained:
R/R B-NHL patients = assay: Ongoing clinical trial of epcoritamab monotherapy (NCT03625037); format: in vivo, human; details: preliminary data
Source text: Epcoritamab as monotherapy is currently in a clinical trial for the treatment of relapsed/refractory (R/R) B-NHL (ClinicalTrials.gov Identifier: NCT03625037).

[1] = test system: CD20-expressing Raji-luc tumor cells; details: NOD-SCID mice injected with Raji-luc tumor cells and PBMCs; even in presence of excess IgG1-RTX-FEAR; cited from earlier work
[2] = test system: primary DLBCL and follicular lymphoma patient biopsies; details: biopsies taken a certain time after anti-CD20 antibody administration; cited from earlier work
[3] = test system: T cells in presence of SU-DHL-4 cells; assay: In vitro T-cell activation assay, T cells incubated with SU-DHL-4 cells; format: cell-based, human; details: SU-DHL-4 target cells
Description: (§1) Briefly, Human Burkitt lymphoma (Raji [ATCC, cat. no. CCL-86]) and DLBCL (SU-DHL-4 [Deutsche Sammlung von Mikroorganismen and Zellkulturen—DSMZ, cat. no. ACC-495]) cell lines were used as target cells. Cells were cultured in culture medium (RPMI 1640 with HEPES and L-Glutamine supplemented with 10% heat-inactivated donor bovine serum with iron, and 1% [v/v] penicillin/streptomycin) to which 2 mM L-glutamine, and 1 mM sodium pyruvate were added, at 37° C., 5% CO2. T cells, which were isolated from human healthy donor buffy coats by negative selection using the RosetteSep™ Human T Cell Enrichment Cocktail (Stemcell Technologies) followed by density centrifugation over a Ficoll gradient, both according to the manufacturer's instructions, were used as effector cells. Isolated cells were washed twice in phosphate buffered saline (PBS) and counted using acridine orange/propidium iodide (AO/PI) viability staining solution (Nexcelom Bioscience) on a Cellometer® Auto 2000 Cell Viability Counter. T cells (100,000 cells/well) were incubated with Raji or SU-DHL-4 cells (50,000 cells/well) in culture medium in the presence of epcoritamab (0.033 pg/mL-333 ng/mL) and bendamustine (0-20 μM) at 37° C., 5% CO2 for 48 hours. B-cell viability and T-cell activation were measured by flow cytometry (count of CD22-positive cells; expression of the activation markers CD69, CD25, and CD107 [LAMP-1] on CD4+ and CD8+ T cells). The percentage cytotoxicity was calculated as follows: % cytotoxicity=100−([cell countsample/cell countno antibody]×100%)

[4] = test system: T cells in presence of Raji cells; assay: In vitro T-cell activation assay, T cells incubated with Raji cells; format: cell-based, human; details: Raji target cells
Description: as §1

CD20 = target: T1, CD20 (Homo sapiens, UniProt P11836); details: rituximab versus IgG1-CD20; different epitopes; cited from earlier work
T1 sequence (P11836 1-297): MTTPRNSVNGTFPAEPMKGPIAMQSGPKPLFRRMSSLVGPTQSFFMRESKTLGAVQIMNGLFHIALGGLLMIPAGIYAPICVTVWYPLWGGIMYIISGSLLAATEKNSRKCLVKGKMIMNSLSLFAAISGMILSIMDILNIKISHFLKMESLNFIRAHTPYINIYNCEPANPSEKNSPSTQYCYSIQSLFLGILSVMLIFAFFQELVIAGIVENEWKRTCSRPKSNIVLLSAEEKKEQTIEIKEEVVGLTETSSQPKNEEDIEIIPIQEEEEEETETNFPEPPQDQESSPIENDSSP

follicular lymphoma = details: double-refractory cases; cited from earlier work
Raji cells = format: cell-based, human; details: bendamustine alone, 0-20 μM, 48 hours
Description: as §1, with “T cells (100,000 cells/well) were incubated with Raji or SU-DHL-4 cells (50,000 cells/well) in culture medium in the presence of epcoritamab (0.033 pg/mL-333 ng/mL) and bendamustine (0-20 μM) at 37° C., 5% CO2 for 48 hours.” left out

SU-DHL-4 cells = format: cell-based, human; details: bendamustine alone, 0-20 μM, 48 hours
Description: as §1, with “T cells (100,000 cells/well) were incubated with Raji or SU-DHL-4 cells (50,000 cells/well) in culture medium in the presence of epcoritamab (0.033 pg/mL-333 ng/mL) and bendamustine (0-20 μM) at 37° C., 5% CO2 for 48 hours.” left out

[5] = bendamustine 0-20 μM, data not shown
[6] = epcoritamab 0.033 pg/mL-333 ng/mL, 48 hours

Compound: Epcoritamab: IgG1 bispecific CD3xCD20 antibody, heavy/light chains SEQ ID NOs: 24, 25 and 26, 27; CAS 2134641-34-0
- tolerability (R/R B-NHL patients): tolerated at doses up to at least 48 mg, including 60 mg
- tumor growth [1]: effectively reduce tumor growth
- T-cell-mediated cytotoxicity [2]: induced T-cell-mediated cytotoxicity
- epcoritamab-induced T-cell activation in presence of bendamustine ([3]; bendamustine 0-20 μM, 48 hours): not affected by the presence of bendamustine at all concentrations tested
- upregulation of activation markers on CD4+ T cells in presence of bendamustine [3, 5]: not affected by bendamustine
- activation of CD8+ T cells (CD69, CD25, LAMP-1 upregulation) [3, 6]: induced concentration-dependent activation of CD8+ T cells
- epcoritamab-induced T-cell activation in presence of bendamustine ([4]; bendamustine 0-20 μM, 48 hours): not affected by the presence of bendamustine at all concentrations tested
- upregulation of activation markers on CD4+ T cells in presence of bendamustine [4, 5]: not affected by bendamustine
- activation of CD8+ T cells (CD69, CD25, LAMP-1 upregulation) [4, 6]: induced concentration-dependent activation of CD8+ T cells

Compound: IgG1-CD20: CD20 antibody of which the CD20 arm of epcoritamab is derived
- competition for CD20 binding (CD20): compete for CD20 binding

Compound: CC[C@H](Nc1ncnc2[nH]cnc12)c1nc2cccc(F)c2c(=O)n1-c1ccccc1 [idelalisib]
- 1-year PFS (follicular lymphoma): 43%
- toxicities (follicular lymphoma): several toxicities leading to treatment discontinuation

Compound: Cn1c(CCCC(=O)O)nc2cc(N(CCCl)CCCl)ccc21 [bendamustine, 4-[5-[Bis(2-chloroethyl)amino]-1-methyl-1H-benzo[d]imidazole-2-yl]butanoic acid]
- number of viable B cells (Raji cells): decreased the number of viable B cells in a dose dependent manner
- number of viable B cells (SU-DHL-4 cells): decreased the number of viable B cells in a dose dependent manner
